Experimental data: US20240139165A1, “METHODS AND COMPOSITIONS FOR TREATMENT OF INFLAMMATORY BOWEL DISEASE” (SHENZHEN HIGHTIDE BIOPHARMACEUTICAL, LTD., priority 2017, published 2024)

Experiment: Single-dose pharmacokinetic study of berberine and fish oil in rats
Format: in vivo, male Sprague-Dawley (SD) rats
Settings: SD rats, single oral, BBR 100 mg/kg
Description: In the single-dose pharmacokinetic study in rats, after 7-day acclimation, healthy male Sprague-Dawley (SD) rats with the body weight of 210-250 g were randomized into six groups as follows (3 rats per group). Fish oil used in this study containing 47.8% (w/w) EPA-ethyl ester and 39.0% (w/w) DHA-ethyl ester. [table] The rats in each group were orally treated with the suspensions of the corresponding testing articles indicated above in 0.5% gum tragacanth respectively. Blood samples of the test animals were collected pre-dose and at the time points of 15 min, 30 min, 1 h, 1.5 h, 2 h, 4 h, 8 h, and 24 h post-dose. The collected blood samples (approximately 400 μL) were placed into tubes containing heparin sodium and centrifuged at 8000 rpm for 6 minutes at 4° C. to separate plasma. The obtained plasma from each sample was stored at −80° C. until being analyzed. Plasma concentrations of BBR and EPA were determined, and PK parameters were calculated.

For COc1ccc2cc3[n+](cc2c1OC)CCc1cc2c(cc1-3)OCO2 [BBR, 5,6-dihydro-9,10-dimethoxybenzo[g]-1,3-benzodioxolo[5,6-a]quinolizinium], the “Cmax of BBR” value was 4.23 ± 5.46 ng/mL, the “Ratio of AUC0-t of BBR compared to BBR group” value was 1.00 and the “Ratio of Cmax of BBR compared to BBR group” value was 1.00. For the same molecule, the AUC(0-t) (male, Sprague-Dawley, rat, plasma, read-out: AUC0-t of BBR) was 0.0458 ± 0.0601 µg·h/mL.
